One test has as its system IL-23 (p19/p40). The test is described as follows: IL23-p19 ELISA, Dendritic, LPS (compound screening using DC cells). The format is cell-based, Human. The note with it: PBMC-derived DC cells, IFNγ primed, LPS 1 μg/ml, 18 hours, 10 pt, read-out: IL23-p19 ELISA, Dendritic, LPS, 10 pt, EC50. The gist of the method: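 Human PBMC-derived dendritic cells (7 d GM-CSF 100 ng/ml + IL-4 20 ng/ml), primed 24 h with IFNγ 50 ng/ml, pre-incubated 1 h with compound, then stimulated 18 h with LPS 1 μg/ml. Supernatant IL-23 measured by p19-capture/p40-detection chemiluminescent ELISA; CellTiter Glo checks cytotoxicity.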

The next test deals with IL-23p19. Kind of test: LPS induced IL23p19 in THP-1 cells (with IFNγ primed) assay. The test is classed as cell-based, Human. The note with it: THP-1 cells, IFNγ primed, LPS 1 ug/mL, 18 hours, 10 pt, read-out: IL23-p19 ELISA, THP1-IFNy, LPS, 10 pt EC50. The gist of the method: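 THP-1 cells primed ~18 h with IFNγ (50 ng/mL), pre-incubated 1 h with compound at 37 °C, then stimulated 18 h with LPS (1 ug/mL final). Supernatant IL-23p19 measured by sandwich ELISA with chemiluminescent read-out; EC50 from curve fitting. Toxicity checked on the remaining cells by Cell Titer Glo.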

Molecules are shown by their SMILES. Counter-ions that a name gives are not always drawn. Like-named read-outs stand apart in the source and are kept apart here.

Consider `O=C(Nc1cn(CCOCC(F)F)nc1-c1ccccn1)c1coc(-c2cn[nH]c2)n1` [III-8, N-(1-(2-(2,2-difluoroethoxy)ethyl)-3-(pyridin-2-yl)-1H-pyrazol-4-yl)-2-(1H-pyrazol-4-yl)oxazole-4-carboxamide], for which the EC50 with IL-23 (p19/p40) (Homo sapiens, 18 h) is 161 nM; in the test with IL-23p19 (Homo sapiens, THP-1, 18 h) it was 400 nM.

Consider `Cn1cc(NC(=O)c2ccc(-c3cn[nH]c3)o2)c(-c2ccccn2)n1` [Compound I-77, N-{1-Methyl-3-(pyridine-2-yl)-1H-pyrazol-4-yl}-5-(1H-pyrazol-4-yl)furan-2-carboxamide, free base], for which the half-maximal effective concentration (EC50) worked out at 41 nM in the test with IL-23 (p19/p40) and 50.4 nM in the test on IL-23p19.

Take `CCO[C@H]1C[C@@H](n2cc(NC(=O)c3csc(-c4cn[nH]c4)n3)c(-c3ccccn3)n2)C1` [II-11, N-(1-((1,3-cis)-3-ethoxycyclobutyl)-3-(pyridin-2-yl)-1H-pyrazol-4-yl)-2-(1H-pyrazol-4-yl)thiazole-4-carboxamide]: the EC50 was determined as 62.3 nM with IL-23 (p19/p40) (Homo sapiens, 18 h) and 50 nM with IL-23p19 (Homo sapiens, THP-1, 18 h).

For `O=C(Nc1cn(C2CC(F)(F)C2)nc1-c1ccccn1)c1csc(-c2cn[nH]c2)n1` [II-134, N-(1-(3,3-difluorocyclobutyl)-3-(pyridin-2-yl)-1H-pyrazol-4-yl)-2-(1H-pyrazol-4-yl)thiazole-4-carboxamide], the concentration for a half-maximal effect (EC50) was determined as 225 nM in the test on IL-23 (p19/p40) (Homo sapiens, 18 h) and 102 nM in the test on IL-23p19 (Homo sapiens, THP-1, 18 h).

As to `O=C(Nc1cn(C2CCOCC2)nc1-c1ccccn1)c1csc(-c2cn[nH]c2)n1` [II-10, 2-(1H-pyrazol-4-yl)-N-(3-(pyridin-2-yl)-1-(tetrahydro-2H-pyran-4-yl)-1H-pyrazol-4-yl)thiazole-4-carboxamide], the concentration giving a half-maximal response (EC50) in the test on IL-23 (p19/p40) (Homo sapiens, 18 h) came to 10.5 nM; in the test with IL-23p19 (Homo sapiens, THP-1, 18 h), 22.6 nM.

Take `CCO[C@H]1CC[C@H](n2cc(NC(=O)c3csc(-c4cn[nH]c4)n3)c(-c3ccccn3)n2)CC1` [II-145, N-(1-((trans)-4-ethoxycyclohexyl)-3-(pyridin-2-yl)-1H-pyrazol-4-yl)-2-(1H-pyrazol-4-yl)thiazole-4-carboxamide]: the concentration giving a half-maximal response (EC50) amounted to 78.4 nM with IL-23 (p19/p40) (Homo sapiens, 18 h) and 66 nM in the test with IL-23p19 (Homo sapiens, THP-1, 18 h).

Consider `O=C(Nc1cn([C@H]2C[C@@H](OCC(F)(F)F)C2)nc1-c1cccc(F)n1)c1ccc(-c2cn[nH]c2)o1` [Compound I-150, N-(3-(6-fluoropyridin-2-yl)-1-((1s,3s)-3-(2,2,2-trifluoroethoxy)cyclobutyl)-1H-pyrazol-4-yl)-5-(1H-pyrazol-4-yl)furan-2-carboxamide formate], for which the 50% effective concentration (EC50) in the test with IL-23 (p19/p40) (Homo sapiens, 18 h) was found to be 226 nM; with IL-23p19 (Homo sapiens, THP-1, 18 h), 64.8 nM.

As to `COCCn1cc(NC(=O)c2ccc(-c3cnn(COP(=O)(OC(C)(C)C)OC(C)(C)C)c3)o2)c(-c2ccccn2)n1` [Compound I-10, di-tert-butyl ((4-(5-((1-(2-methoxyethyl)-3-(pyridin-2-yl)-1H-pyrazol-4-yl)carbamoyl)furan-2-yl)-1H-pyrazol-1-yl)methyl) phosphate], the concentration giving a half-maximal response (EC50) in the test with IL-23 (p19/p40) (Homo sapiens, 18 h) was found to be 3270 nM; in the test on IL-23p19 (Homo sapiens, THP-1, 18 h), 21900 nM.

As for `CN(C)[C@H]1C[C@@H](n2cc(NC(=O)c3csc(-c4cn[nH]c4)n3)c(-c3ccccn3)n2)C1` [II-15, N-(1-((1s,3s)-3-(dimethylamino)cyclobutyl)-3-(pyridin-2-yl)-1H-pyrazol-4-yl)-2-(1H-pyrazol-4-yl)thiazole-4-carboxamide], the EC50 with IL-23 (p19/p40) (Homo sapiens, 18 h) amounted to 9.6 nM; in the test on IL-23p19 (Homo sapiens, THP-1, 18 h), 6.4 nM.

Regarding `CC(C)(C)OC(=O)N1CC(n2cc(NC(=O)c3ccc(-c4cn[nH]c4)o3)c(-c3ccccn3)n2)C1` [Compound I-74, tert-Butyl-3-[4-{5-(1H-pyrazole-4-yl)furan-2-carboxamido}-3-(pyridine-2-yl)-1H-pyrazol-1-yl]azetidine-1-carboxylate], the figures for the EC50 in the test on IL-23 (p19/p40) and with IL-23p19 were 131 nM and 151 nM, respectively.

As for `CCO[C@H]1C[C@H](n2cc(NC(=O)c3csc(-c4cn[nH]c4)n3)c(-c3ccccn3)n2)C1` [II-12, N-(1-((1,3-trans)-3-ethoxycyclobutyl)-3-(pyridin-2-yl)-1H-pyrazol-4-yl)-2-(1H-pyrazol-4-yl)thiazole-4-carboxamide], the EC50 came to 61.6 nM with IL-23 (p19/p40) (Homo sapiens, 18 h) and 135 nM in the test with IL-23p19 (Homo sapiens, THP-1, 18 h).
